Literature values in patent publication US10543277B2, “Formulation of curcumin with enhanced bioavailability of curcumin and method of preparation and treatment thereof” (ARJUNA NATURAL PRIVATE LIMITED, priority 2005, dated 2020).

Key:
[1] = system: COX pathway; conditions: 10 μM
[2] = system: LOX (lipoxygenase) pathway; conditions: 10 μM
[3] = system: OPLs
[4] = system: oral premalignancy; conditions: for responded to maintenance therapy or continued to have stable lesions / subjects who responded to maintenance therapy or continued to have stable lesions: maintenance phase; for subjects who responded to maintenance therapy or continued to have stable lesions: 53 evaluable
[5] = among the 24 13-cRA subjects, 1-2 mg/kg/day for three months

| SMILES | inhibition of metabolism of arachidonic acid to PGD2 [1] [%] | inhibition of metabolism of arachidonic acid to PGE2 [1] [%] | inhibition of metabolism of arachidonic acid to PGF2α [1] [%] | inhibition of conversion of arachidonic acid to 5-hydroxyeicosatetraenoic acid [2] [%] | inhibition of conversion of arachidonic acid to 8-hydroxyeicosatetraenoic acid [2] [%] | subjects with complete responses [3, 5] | subjects with partial responses [3, 5] | relapse after end of therapy ([3]; in vivo) | subjects with intolerable conjunctivitis and hypertriglyceridemia ([3]; receiving 2 mg/kg) | rate of response at the conclusion of induction ([4]; high-dose induction therapy) [%] | rate of stable disease at the conclusion of induction ([4]; high-dose induction therapy) [%] | responded to maintenance therapy or continued to have stable lesions [4] [%] | subjects who responded to maintenance therapy or continued to have stable lesions [4] |
| --- | --- | --- | --- | --- | --- | --- | --- | --- | --- | --- | --- | --- | --- |
| COc1cc(/C=C/C(=O)CC(=O)/C=C/c2ccc(O)c(OC)c2)ccc1O [Curcumin, 1,7-bis(4-hydroxy-3-methoxyphenyl)-1,6-heptadiene-3,5-dione] | 73 | 70 | 64 | 60 | 51 | – | – | – | – | – | – | – | – |
| CC1=C(/C=C/C(C)=C/C=C/C(C)=C\C(=O)O)C(C)(C)CCC1 [13-cRA, 13-cis-retinoic acid] | – | – | – | – | – | 2 | 14 | 2-3 months | 2 | 55 | 35 | 92 | 22 |
| CC1=C(/C=C/C(C)=C/C=C/C(C)=C/C=C/C=C(C)/C=C/C=C(C)/C=C/C2=C(C)CCCC2(C)C)C(C)(C)CCC1 [β-carotene] | – | – | – | – | – | – | – | – | – | – | – | 45 | 13 |
